Measured values reported in patent publication US20190247371A1, “METHODS FOR TREATING SMALL CELL LUNG CANCERS BY USING PHARMACEUTICAL COMPOSITIONS OR COMBINATIONS COMPRISING INDOLIZINO[6,7-B]INDOLE DERIVATIVES” (priority 2016, published 2019).
Like-named read-outs stand apart in the source and are kept apart here.

Legend:
[1] = system: H82 cells; assay: alamarBlue cytotoxicity assay, SCLC H82 cells; type: cell-based; details: read-out: IC50, concentration required to inhibit cell growth by 50%
Procedure: (§1) The inhibitory effect of BO-1978 on the cell growth of SCLC cell lines in vitro was examined. The cytotoxicity was assayed using alamarBlue® reagent (AbD Serotec) as previously described in U.S. Pat. No. 8,703,951 B2. In brief, H82, H211 and H526 cells were seeded to a 96 well plate with 5000, 1000 and 3000 cells per well, respectively, and incubated for 24 h. The growing cells were treated with BO-1978, cisplatin, etoposide or irinotecan at serial-diluted concentrations for 72 h at 37° C. An aliquot of alamarBlue® reagent (AbD Serotec) was added and the cultures were incubated for 5 h. The fluorescence at excitation 530 nm and emission 590 nm was read with a plate reader. The proliferation rate was calculated according to the manufacturer's instruction. The values of IC50 (50% inhibition concentration) for each compound were determined from dose-effect relationship using the CompuSyn software (Chou 2010^44).

[2] = system: H211 cells; assay: alamarBlue cytotoxicity assay, SCLC H211 cells; type: cell-based; details: read-out: IC50, concentration required to inhibit cell growth by 50%
Procedure: as §1

[3] = system: H526 cells; assay: alamarBlue cytotoxicity assay, SCLC H526 cells; type: cell-based; details: read-out: IC50, concentration required to inhibit cell growth by 50%
Procedure: as §1

[4] = system: SCLC H526 cells; assay: SCLC H526 tumor xenograft model, single agents; type: in vivo; details: for body weight change: doses within MTD: BO-1978 40 mg/kg QD×5, etoposide 10 mg/kg Q2D×3, irinotecan 30 mg/kg QD×6, cisplatin 6 mg/kg Q4D×3, FIG. 2B
Procedure: H526 cells (1×10^7) were subcutaneously implanted into nude mice. […] Tumor size and body weight were taken at the time indicated. A, average tumor size changes; B, average body weight changes; and C, Kaplan-Meyer survival curves.
The animals used in this study were treated exactly according to the guidelines of the Academia Sinica Institutional Animal Care and Utilization Committee. Male athymic nude mice in 5 weeks of age were obtained from the National Laboratory Animal Center (Taipei, Taiwan) and housed for 1 week before performing experiments H526 cells (1×10^7) were subcutaneously implanted into nude mice (five groups, each 4 mice). […] Etoposide (10 mg/kg Q2D×3), irinotecan (30 mg/kg QD×6), and cisplatin (6 mg/kg Q4D×3) were used as the positive control and were administered as indicated.

[5] = system: SCLC H211 cells; assay: SCLC H211 tumor xenograft model, single agents; type: in vivo, nude mice; details: same dosages and route as H526 study, FIG. 3
Procedure: H211 (3×10^6) were subcutaneously implanted into nude mice. When rumor size reached 100-200 mm^3, BO-1978, etoposide, irinotecan, and cisplatin were i.v. administered as indicated. Tumor size and body weight were taken at the time indicated. A, tumor size; and B, body weight.
In another experiment, the effect of BO-1978 on the inhibition of SCLC H211 cells, a fast growing cell line, was evaluated in xenograft model. Mice were treated with the tested compounds under the same dosages and administration route as described above.

[6] = system: H526 cells; assay: alamarBlue combined treatment cytotoxicity, H526 cells; type: cell-based; details: co-treated with irinotecan at various ratios, 72 h, FIG. 4
Procedure: Cell survival was analyzed using alamarBlue assay. CI indicates combination index A, BO-1978 and cisplatin; B, BO-1978 and etoposide; and C, BO-1978 and irinotecan.
(§2) Combination therapy is therapy that uses more than one drug for therapy. […] The resulting combination index (CI) theorem of Chou-Talalay offers quantitative definition for additive effect (CI=1), synergism (CI<1), and antagonism (CI>1) in drug combinations (Chou 2010^44).

[7] = system: H211 cells; assay: alamarBlue combined treatment cytotoxicity, H211 cells; type: cell-based; details: co-treated with irinotecan at various ratios, 72 h, FIG. 5
Procedure: H211 cells were seeded and treated with various concentrations of BO-1978, or therapeutic agents either alone or in combination for 72 h. Cell survival was analyzed using alamarBlue assay. CI indicates combination index. A, BO-1978 and cisplatin; B, BO-1978 and etoposide; and C, BO-1978 and irinotecan.
as §2

[8] = system: SCLC H526 xenografts; assay: SCLC H526 xenograft, BO-1978 and irinotecan alone or in combination; type: in vivo, nude mice
Procedure: H526 cells (1×10^7) were subcutaneously implanted into nude mice. When tumor size reached 100-200 mm^3, BO-1978 and irinotecan, either alone or in combination were i.v. administered as indicated. Tumor size and body weight were taken at the time indicated A, tumor size; and B, body weight.
The mice (n=5) bearing SCLC H526 xenografts were treated with BO-1978 (alone, 40 mg/kg, Q2D×5), irinotecan (alone, 30 mg/kg, Q2D×5), and BO-1978 (40 mg/kg)+irinotecan (30 mg/kg) (Q2D×5) via iv inj.

[9] = system: SCLC H211; assay: SCLC H211 xenograft, BO-1978 and irinotecan alone or in combination; type: in vivo, nude mice
Excerpt: H211 cells (3×10^6) were subcutaneously implanted into nude mice. When tumor size reached 100-200 mm^3, BO-1978 and irinotecan, cither alone or in combination were i.v. administered as indicated. Tumor size and body weight were taken at the time indicated. A, tumor size; and B, body weight.
In another experiment, the therapeutic efficacy of BO-1978 (alone) or in combination with irinotecan against SCLC H211 was investigated in xenograft models (FIG. 7). The H211 bearing mice (n=5) were administered with BO-1978 (alone, 40 mg/kg, QD×5), irinotecan (alone, 30 mg/kg, QD×5), and BO-1978 (40 mg/kg)+irinotecan (30 mg/kg) (QD×5) via iv inj.

[10] = system: SCLC H211 cells; assay: Cell cycle analysis by flow cytometry, H211 cells; type: cell-based; details: 24, 48, 72 h, FIG. 9
Procedure: H211 cells were treated with various concentrations of (A) BO-1978, (B) BMN-673, or (C) BO-1978 plus BMN-673 at 24, 48, and 72 h. At the end of treatment, the cells were harvested by trypsinization, fixed in ice-cold ethanol, stained with propidium iodide, and subjected to cell cycle analysis with a flow cytometer.
In the present invention, the SCLC H211 cells were treated with the combination of BO-1978 and BMN 673 or HY-10130 for 72 h. Cell survival was analyzed by PrestoBlue Assay. The combination index (CI) was calculated using CompuSyn software (Chou 2006^61).

[11] = system: NSCLC cells; details: in vitro; cited from earlier work
[12] = system: EGFR wild-type and mutant NSCLC tumors; details: cited from earlier work
[13] = preclinical toxicity studies; cited from earlier work
[14] = system: PC9/gef B4 cells; details: cited from earlier work

In the case of `CCc1c(CO)c(CO)c2n1Cc1c(c3ccccc3n1C)C2` [BO-1978, [3-ethyl-6-methyl-6,11-dihydro-5H-indolizino[6,7-b]indole-1,2-diyl]dimethanol], the IC50 ([1]; Homo sapiens, NCI-H82, H82, 72 h, mean ± S.D. of 3 independent experiments) is reported as 0.35 ± 0.28 µM, the IC50 ([2]; Homo sapiens, NCI-H211, H211, 72 h, mean ± S.D. of 3 independent experiments) is reported as 0.148 ± 0.001 µM and the IC50 ([3]; Homo sapiens, NCI-H526, H526, 72 h, mean ± S.D. of 3 independent experiments) is reported as 0.076 ± 0.026 µM. The “therapeutic effect on tumor size” value ([4]; BO-1978 40 mg/kg QD×5 iv, FIG. 2A) was “more efficacious than etoposide, irinotecan and cisplatin”, the body weight change [4] was “did not cause body weight lost” and the survival term ([4]; one out of 4 mice, FIG. 2C) was over 430 days. The “inhibition of tumor growth” value [5] was “more potent than the drugs used for comparison”, the cytotoxicity of co-treatment [6] was “enhanced the cytotoxicity” and the cytotoxicity of co-treatment [7] was “enhanced the cytotoxicity”. For the same compound, the tumor growth suppression ([8]; 40 mg/kg Q2D×5 iv, n=5) was “significantly suppressed tumor growth”, the “mice with complete remission (CR)” value ([8]; day 14, Q2D×5 iv) was 4/5 and the “mice with tumor <100 mm3” value ([8]; day 14, Q2D×5 iv) was 1/5. For the same compound, the “therapeutic efficacy, mono-drug comparison” value ([9]; 40 mg/kg QD×5 iv, n=5) was “more potent than irinotecan (alone)”, the “day of tumor relapse” value ([9]; QD×5 iv) was 18 days and the “day tumor CR was seen” value ([9]; QD×5 iv) was 14 days. For the same compound, the “effect on G2/M phase of cell cycle” value [10] was “induced severe G2/M arrest”, the “subG1 cells (apoptotic death)” value [10] was “appearance of the subG1 cells at high doses” and the “cytotoxicity against cell growth of various NSCLC cells” value [11] was “significant cytotoxicity”. For the same compound, the body weight loss ([12]; xenograft and orthotopic lung tumor models) was “negligible body weight loss”, the “therapeutic efficacy in nude mice bearing NSCLC” value ([12]; xenograft and orthotopic models) was “potent therapeutic efficacy” and the toxicity in mice [13] was “does not cause apparent toxicity”. The “killing of cells with acquired gefitinib resistance” value [14] was “effectively kills”.
`COc1cc([C@@H]2c3cc4c(cc3[C@@H](O[C@@H]3O[C@@H]5CO[C@@H](C)O[C@H]5[C@H](O)[C@H]3O)[C@H]3COC(=O)[C@H]23)OCO4)cc(OC)c1O` [Etoposide] showed an IC50 ([1]; Homo sapiens, NCI-H82, 72 h) of 0.146 ± 0.002 µM, an IC50 ([2]; Homo sapiens, NCI-H211, 72 h) of 0.07 ± 0.03 µM and an IC50 ([3]; Homo sapiens, NCI-H526, 72 h) of 0.05 ± 0.02 µM. The “day mice were sacrificed because tumor size was over 2,500 mm^3” value [4] was 35 days and the body weight change [4] was “did not cause body weight lost”.
In the case of `CCc1c2c(nc3ccc(OC(=O)N4CCC(N5CCCCC5)CC4)cc13)-c1cc3c(c(=O)n1C2)COC(=O)[C@]3(O)CC` [Irinotecan], the IC50 ([1]; Homo sapiens, NCI-H82, 72 h) is reported as 1.2 ± 0.07 µM, the IC50 ([2]; Homo sapiens, NCI-H211, 72 h) is reported as 0.03 ± 0.01 µM and the IC50 ([3]; Homo sapiens, NCI-H526, 72 h) is reported as 1.18 ± 0.57 µM. The “day mice were sacrificed because tumor size was over 2,500 mm^3” value [4] was 45 days, the body weight change [4] was “did not cause body weight lost” and the “day of tumor relapse” value ([8]; 30 mg/kg Q2D×5 iv) was 15 days.
For `Cn1ncnc1[C@H]1c2n[nH]c(=O)c3cc(F)cc(c23)N[C@@H]1c1ccc(F)cc1` [BMN 673, (8S,9R)-5-Fluoro-8-(4-fluorophenyl)-9-(1-methyl-1H-1,2,4-triazol-5-yl)-2,7,8,9-tetrahydro-3H-pyrido[4,3,2-de]phthalazin-3-one, reference compound], the “effect on G2/M phase of cell cycle” value [10] was “delayed the progression of the G2/M phase” and the “subG1 cells (apoptotic death)” value [10] was “did not induce subG1 cells”.
With `N.N.[Cl][Pt][Cl]` [Cisplatin, cis-diaminedichloroplatinum] the IC50 ([1]; H82, 72 h, mean ± S.D. of 3 independent experiments) was 0.34 ± 0.08 µM, the IC50 ([2]; H211, 72 h, mean ± S.D. of 3 independent experiments) was 0.57 ± 0.29 µM and the IC50 ([3]; H526, 72 h, mean ± S.D. of 3 independent experiments) was 0.66 ± 0.25 µM. For the same compound, the “day mice were sacrificed because tumor size was over 2,500 mm^3” value [4] was 35 days and the body weight change [4] was “did not cause body weight lost”.
